The source of these data is patent US6162803A, “Indol-3-yl-cyclohexyl amine derivatives for the treatment of depression” (American Home Products Corp., priority 1999, dated 2000).

SMILES strings stand for the structures.

One assay deals with T1, serotonin transporter (Rattus norvegicus, UniProt P31652).
T1 construct: frontal cortical membranes prepared from male Sprague-Dawley rats; from tissue; host or cells: frontal cortical membranes of male Sprague-Dawley rats
Kind of assay: [3H]-paroxetine binding, affinity for the serotonin transporter (rat frontal cortical membranes). Also noted: species or system male Sprague-Dawley rats. The following applies: 3H-paroxetine (0.1 nM); for Ki: 60 min at 25° C., read-out: Ki (nM) ST [^3 H]paroxetine. On the procedure: A protocol similar to that used by Cheetham et al., Neuropharmacol., 32:737 (1993) was used to determine the affinity of compounds for the serotonin transporter. Briefly, frontal cortical membranes prepared from male Sprague-Dawley rats were incubated with ^3 H-paroxetine (0.1 nM) for 60 min at 25° C. All tubes also contained either vehicle, test compound (one to eight concentrations), or a saturating concentration of fluoxetine (10 μM) to define […]. All reactions are terminated by the addition of ice cold Tris buffer followed by rapid filtration using a Tom Tech filtration device to separate bound from free ^3 H-paroxetine. Bound radioactivity was quantitated using a Wallac 1205 Beta Plate® counter. Nonlinear regression analysis was used to determine IC50 values which were converted to Ki values using the method of Cheng and Prusoff, Biochem. Pharmacol., 22:3099 (1973); Ki=IC50/((Radioligand conc.)/(1+KD)).

The target in another assay is T2, human 5-HT1A receptor (Homo sapiens, UniProt P08908).
T2 construct: expressed in transfected cells; host or cells: Chinese hamster ovary cells (5-HT1A.CHO), membranes
T2 sequence (P08908 1-422): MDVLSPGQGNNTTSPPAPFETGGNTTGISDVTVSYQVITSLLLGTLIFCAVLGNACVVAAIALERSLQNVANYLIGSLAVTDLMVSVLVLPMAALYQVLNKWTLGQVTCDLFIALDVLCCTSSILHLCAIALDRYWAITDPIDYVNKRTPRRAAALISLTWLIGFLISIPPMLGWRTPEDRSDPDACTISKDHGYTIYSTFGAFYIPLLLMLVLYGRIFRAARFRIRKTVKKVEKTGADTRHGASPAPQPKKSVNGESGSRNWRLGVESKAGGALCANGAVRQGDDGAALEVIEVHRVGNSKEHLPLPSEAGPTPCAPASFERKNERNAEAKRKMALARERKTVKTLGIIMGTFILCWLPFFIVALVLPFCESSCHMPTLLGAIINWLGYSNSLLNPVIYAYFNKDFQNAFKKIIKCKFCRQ
Kind of assay: [3H]8-OH-DPAT competition binding at human 5-HT1A receptor (5-HT1A.CHO cell membranes). The following applies: [3H]8-OH-DPAT 1.5 nM; for inhibition at 1 µM: 0.5 h. As for the experimental part:
The PCR cloning of the human 5-HT1A receptor subtype from a human genomic library has been described previously Chanda et al., Mol. Pharmacol., 43:516 (1993). A stable Chinese hamster ovary cell line expressing the human 5-HT1A receptor subtype (5-HT1A.CHO cells) was employed throughout this study. Cells were maintained in DMEM supplemented with 10% foetal calf serum, non-essential amino acids and penicillin/streptomycin.
Cells were grown to 95-100% confluency as a monolayer before membranes were harvested for binding studies. Cells were gently scraped from the culture plates, transferred to centrifuge tubes, and washed twice by centrifugation (2000 rpm for 10 min., 4° C.) in buffer (50 mM Tris; pH 7.5). The resulting pellets were aliquoted and placed at -80° C. On the day of assay, the cells were thawed on ice, and resuspended in buffer. Studies were conducted using [^3 H]8-OH-DPAT as the radioligand. The binding assay was performed in 96 well microtiter plates in a final total volume of 250 μL of buffer. Competition experiments were performed by using 7 concentrations of unlabelled drug and a final ligand concentration of 1.5 nM. Non-specific binding was determined in the presence of 10 μM 5HT. Saturation analysis was conducted by using [^3 H]8-OH-DPAT at concentrations ranging from 0.3-30 nM. Following a 30 minute incubation at room temperature, the reaction was terminated by the addition of ice cold buffer and rapid filtration using a M-96 Brandel Cell Harvester (Gaithersburg, Md) through a GF/B filter presoaked for 30 minutes in 0.5% polyethyleneimine.

T1 sequence (P31652 whole entry): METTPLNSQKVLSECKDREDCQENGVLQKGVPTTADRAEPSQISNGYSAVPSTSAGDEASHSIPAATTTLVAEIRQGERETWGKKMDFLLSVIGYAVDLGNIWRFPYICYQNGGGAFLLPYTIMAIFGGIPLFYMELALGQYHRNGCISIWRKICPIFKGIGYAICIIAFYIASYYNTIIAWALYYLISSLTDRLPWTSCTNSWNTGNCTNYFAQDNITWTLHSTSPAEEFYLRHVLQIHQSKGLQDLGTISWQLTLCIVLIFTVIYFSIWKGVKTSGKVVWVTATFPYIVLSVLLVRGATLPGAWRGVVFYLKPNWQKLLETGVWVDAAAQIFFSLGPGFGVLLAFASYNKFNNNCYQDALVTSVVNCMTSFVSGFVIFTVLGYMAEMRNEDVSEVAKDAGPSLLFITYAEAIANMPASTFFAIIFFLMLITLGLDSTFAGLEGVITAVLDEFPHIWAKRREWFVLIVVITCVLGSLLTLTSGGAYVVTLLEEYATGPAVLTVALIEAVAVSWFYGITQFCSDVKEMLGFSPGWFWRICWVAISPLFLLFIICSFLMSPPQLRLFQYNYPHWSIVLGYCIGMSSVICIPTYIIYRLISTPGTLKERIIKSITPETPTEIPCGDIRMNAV

For the compound `Fc1ccc2[nH]cc([C@H]3CC[C@@H](NCC4COc5ccccc5N4)CC3)c2c1` (relative stereo) [2 (cis), (3,4-Dihydro-benzo[1,4]oxazine-3-ylmethyl)-[cis-4-(5-fluoro-1H-indol-3-yl)-cyclohexyl]-amine], the inhibition at 1 µM worked out at 34% at serotonin transporter (1 h, @ 1 μM, read-out: ST [^3 H]paroxetine, % @ 1 μM) and 9% at human 5-HT1A receptor.

Regarding `Fc1ccc2[nH]cc([C@H]3CC[C@H](NCC4CNc5ccccc5O4)CC3)c2c1` (relative stereo) [1 (trans), (3,4-Dihydro-benzo[1,4]oxazine-2-ylmethyl)-[trans-4-(5-fluoro-1H-indol-3-yl)-cyclohexyl]-amine], the Ki on serotonin transporter came to 24 nM. The inhibition at 1 µM on human 5-HT1A receptor is 44%.

In the case of `Fc1ccc2[nH]cc([C@H]3CC[C@@H](NCC4CNc5ccccc5O4)CC3)c2c1` (stereo partly drawn) [1 (cis), (3,4-Dihydro-benzo[1,4]oxazine-2-ylmethyl)-[cis-4-(5-floro-1H-indol-3-yl)-cyclohexyl]-amine], the Ki stood at 44 nM at serotonin transporter and 2430 nM at human 5-HT1A receptor (30 minute incubation at room temperature).

With `Fc1ccc2[nH]cc([C@H]3CC[C@H](NCC4COc5ccccc5N4)CC3)c2c1` (relative stereo) [2 (trans), (3,4-Dihydro-benzo[1,4]oxazine-3-ylmethyl)-[trans-4-(5-fluoro-1H-indol-3-yl)-cyclohexyl]-amine], the Ki on serotonin transporter amounted to 10 nM. Besides, at human 5-HT1A receptor, the inhibition at 1 µM is 20%.

In general, Ki refers to a dissociation constant, usually derived from enzyme kinetics or from competition with a known ligand.
